In brackets after ≈: the same amount, converted by molar mass. Activity calls are given as the source filed them. No cut-off for these calls is given here.
How the values were obtained:
Micrococcus luteus = assay: Antimicrobial activity against Micrococcus luteus AB93113 by microdilution method; type: functional
Bacillus thuringiensis = assay: Antimicrobial activity against Bacillus thuringiensis AB93066 by microdilution method; type: functional
Bacillus subtilis = assay: Antimicrobial activity against Bacillus subtilis AB91021 by microdilution method; type: functional
Staphylococcus aureus [1] = assay: Antimicrobial activity against Staphylococcus aureus AB94004 by microdilution method; type: functional
Escherichia coli = assay: Antimicrobial activity against Escherichia coli AB94012 by microdilution method; type: functional
Pseudomonas aeruginosa = assay: Antimicrobial activity against Pseudomonas aeruginosa AB92037 by microdilution method; type: functional
Staphylococcus aureus [2] = assay: Antimicrobial activity against methicillin-resistant Staphylococcus aureus P1386 by microdilution method; type: functional
Staphylococcus aureus [3] = assay: Antimicrobial activity against methicillin-resistant Staphylococcus aureus P1374 by microdilution method; type: functional
Staphylococcus = assay: Antimicrobial activity against methicillin-resistant coagulase-negative Staphylococcus P1369 by microdilution method; type: functional
[4] = test system: Staphylococcus epidermidis; assay: Antimicrobial activity against penicillin-resistant Staphylococcus epidermidis P1389 by microdilution method; type: functional
[5] = test system: Staphylococcus epidermidis; assay: Antimicrobial activity against penicillin-sensitive Staphylococcus epidermidis P1111 by microdilution method; type: functional
Staphylococcus aureus [6] = assay: Antimicrobial activity against methicillin-resistant Staphylococcus aureus P1386 at 200 ug/ml after 9 hrs by time-kill analysis; type: functional, organism-based
Staphylococcus aureus [7] = assay: Antimicrobial activity against methicillin-resistant Staphylococcus aureus P1386 at 500 ug/ml after 9 hrs by time-kill analysis; type: functional, organism-based

SMILES | MIC (Micrococcus luteus) [µg/mL] | MIC (Bacillus thuringiensis) [µg/mL] | MIC (Bacillus subtilis) [µg/mL] | MIC (Staphylococcus aureus [1]) [µg/mL] | MIC (Escherichia coli) [µg/mL] | MIC (Pseudomonas aeruginosa) [µg/mL] | MIC (Staphylococcus aureus [2]) [µg/mL] | MIC (Staphylococcus aureus [3]) [µg/mL] | MIC (Staphylococcus) [µg/mL] | MIC [4] [µg/mL] | MIC [5] [µg/mL] | Activity (Staphylococcus aureus [6]) | Activity (Staphylococcus aureus [7])
CO/N=C(\C(=O)N[C@@H]1C(=O)N2C(C(=O)O)=C(COC(C)=O)CS[C@H]12)c1csc(N)n1 [CEFOTAXIME] | 3 (≈ 6.59 µM) | 12.5 (≈ 27.4 µM) | 50 (≈ 110 µM) | 3 (≈ 6.59 µM) | 3 (≈ 6.59 µM) | 12.5 (≈ 27.4 µM) | 400 (≈ 878 µM) | 400 (≈ 878 µM) | 100 (≈ 220 µM) | 12.5 (≈ 27.4 µM) | 8 (≈ 17.6 µM) | inactive | –
CC1(C)S[C@@H]2[C@H](NC(=O)Cc3ccccc3)C(=O)N2[C@H]1C(=O)O [PENICILLIN G] | 25 (≈ 74.8 µM) | 12.5 (≈ 37.4 µM) | 50 (≈ 150 µM) | 6 (≈ 17.9 µM) | – | – | 1000 (≈ 2990 µM) | 1000 (≈ 2990 µM) | 2000 (≈ 5980 µM) | 1000 (≈ 2990 µM) | 4 (≈ 12 µM) | – | inactive
CN[C@H](CC(C)C)C(=O)N[C@H]1C(=O)N[C@@H](CC(N)=O)C(=O)N[C@H]2C(=O)N[C@H]3C(=O)N[C@H](C(=O)N[C@H](C(=O)O)c4cc(O)cc(O)c4-c4cc3ccc4O)[C@H](O)c3ccc(c(Cl)c3)Oc3cc2cc(c3O[C@@H]2O[C@H](CO)[C@@H](O)[C@H](O)[C@H]2O[C@H]2C[C@](C)(N)[C@H](O)[C@H](C)O2)Oc2ccc(cc2Cl)[C@H]1O [VANCOMYCIN] | 3 (≈ 2.07 µM) | 3 (≈ 2.07 µM) | 3 (≈ 2.07 µM) | – | – | – | – | – | 4 (≈ 2.76 µM) | – | – | – | –

From ChEMBL document CHEMBL1649537, “Imcroporin, a new cationic antimicrobial peptide from the venom of the scorpion Isometrus maculates” (2009)
